Laboratory results: patent US20070249537A1, “ABSORPTION ENHANCING AGENTS” (Supernus Pharmaceuticals, Inc., priority 2003, published 2007)
Values after ≈ are worked out from the molar mass of the structure shown. Like-named read-outs stand apart in the source and are kept apart here. Marks after values point to notes of the source that are not given here. Each block holds one compound with its values, some of them ahead of it.

Legend:
Caco-2 cell line [1] = assay type: in vitro ADME, human; details: for Permeability Coefficient, Sampatrilat / Effect on sampatrilat permeation across the Caco-2 cell line: Caco-2
From the text: (§1) The Caco-2 cell line is a well-recognized in vitro screening model, which both structurally and functionally represents the small intestinal epithelium. Caco-2 cells are derived from human colon carcinoma cells and differentiate in culture to form intestinal epithelia similar to that found in the small intestine. More specifically, Caco-2 cells form a brush border with normal enzymes, form tight junctions between cells, and acquire the barrier properties of an enterocyte sheet.
(§2) Permeability coefficients are determined as previously reported by Yazdania et.el (Yazdanian M, Glynn, S I, Wright J L, et al. 1998. Correlating partitioning and Caco-2 permeability of structurally diverse small molecular weight compounds. Pharm Res 15:1490-1494). Briefly, drug solutions were prepared in HBSS at a known final concentration. For AP to BL experiments, the solution was placed on the apical side of the cells and samples were taken from basolateral side. In contrast, for BL to AP experiments, the solution was placed on the basolateral side of the cells and samples were taken from apical side. The samples are analyzed by an HPLC. Transport rates (J) are determined by plotting cumulative amounts of drug permeated as a function of time. Apparent permeability coefficients Pcaco-2, are determined according to the equation Pcaco-2=J/ACi where Ci is the initial concentration of the solution in donor chamber and A is the surface area of the filter.
(§3) The original cell line integrity and the effect of excipients on the integrity of cell line were also tested by measuring the flux of ^14C-mannitol.

Caco-2 cell line [2] = assay type: in vitro ADME, human
Description: as §2, §3

Caco-2 cells = assay: Lactate dehydrogenase (LDH) assay after the permeation studies; assay type: cell-based, human
Description: In addition, a lactate dehydrogenase (LDH) assay was conducted after the permeation studies to evaluate the cytotoxicity of the absorption enhancers as well as to discover any violation of the integrity of the Caco-2 cells. LDH is a cytosolic enzyme that is not normally secreted outside the cell. However, it leaks into the culture medium upon damage to the cell membranes. In vitro release of LDH from cells provides an accurate measure of cell membrane integrity and cell viability. […] LDH leakage into the apical compartment of the Caco-2 cell system was used to measure the effect, if any, of a given absorption enhancer on the viability of the Caco-2 cells.

Caco-2 cell line [3] = assay type: in vitro ADME, human; remark: listed apart in the source
From the text: as §1, §2

[4] = Aqueous solubility of sampatrilat; assay type: physicochemical
[5] = in vivo; tablet dosage form; earlier studies; cited from earlier work
Caco-2 cell line [6] = details: human
Description: (§4) The effectiveness of N-methylated glycines as permeability enhancers was evaluated using mannitol as a control.

in vitro = details: human, Caco-2
Description: as §4

[7] = sampatrilat study, excipient 1% w/v (none for drug alone)
[8] = hydrochlorothiazide study 1, excipient 1% (none for drug alone)
[9] = hydrochlorothiazide study 3, excipient 1% (none for drug alone)
[10] = hydrochlorothiazide study 2, excipient 1% (none for drug alone)
[11] = hydrochlorothiazide study 5, excipient 5% w/v (none for drug alone)
[12] = mannitol study, first series, enhancer 0.5%
[13] = mannitol study, first series, enhancer 1% (none for mannitol control)

Compound: NC(=O)NCCC[C@H](N)C(=O)O [Citrulline]
- Permeability Coefficient, Sampatrilat (Caco-2 cell line [1]): 0.34 10E−6 cm/s
- Permeability coefficient (mannitol) (Caco-2 cell line [2]): 0.22 10E−6 cm/s
- Toxicity (Caco-2 cells; [7]): Yes

Compound: CC1(C)[C@@H](O)CC[C@]2(C)[C@H]3C(=O)C=C4[C@@H]5C[C@@](C)(C(=O)O)CC[C@]5(C)CC[C@@]4(C)[C@]3(C)CC[C@@H]12 [Glycyrrehetinic acid, 18β-glycyrrhetinic acid, reference compound]
- Permeability enhancement of hydrochlorothiazide (Caco-2 cell line [3]): low or no potency
- Toxicity (Caco-2 cells; [8]): No

Compound: NCCCCCC(=O)O [Amino caproic acid]
- Permeability Coefficient, Sampatrilat (Caco-2 cell line [1]): 0.48 10E−6 cm/s
- Permeability coefficient (mannitol) (Caco-2 cell line [2]): 1.07 10E−6 cm/s
- Toxicity (Caco-2 cells; [7]): Yes

Compound: O=C(O)C1=C[C@@H](O)[C@@H](O)[C@H](O)C1 [Shikimic acid, shikimic acid]
- Toxicity (Caco-2 cells; [9]): No
- Toxicity (Caco-2 cells; hydrochlorothiazide study 5, excipient 3% w/v): No
- Toxicity (Caco-2 cells; [7]): No

Compound: O=C1CCCCCCCCCCCCCCO1 [Cyclopentadecanolide, cyclopentadecanolide]
- Permeability enhancement of hydrochlorothiazide (Caco-2 cell line [3]): low or no potency
- Toxicity (Caco-2 cells; [8]): No
- Toxicity (Caco-2 cells; [11]): No

Compound: C[N+](C)(C)CC(=O)O [betaine, trimethyl glycine]
- Toxicity (Caco-2 cells; [13]): No

Continued, in another order:

- solubility [4]: 1.8 mg/mL (≈ 3.08 mM)
Compound: CS(=O)(=O)N[C@@H](CCCCN)C(=O)NC[C@H](CC1(C(=O)N[C@@H](Cc2ccc(O)cc2)C(=O)O)CCCC1)C(=O)O [Sampatrilat]
- Oral bioavailability [5]: 2-5%

- Permeability coefficient (hydrochlorothiazide) (Caco-2 cell line [3]): 7.30 ×10^−6, cm/s
- Permeability enhancement of hydrochlorothiazide (Caco-2 cell line [3]): demonstrated as permeability enhancers
- Effect on sampatrilat permeation across the Caco-2 cell line (Caco-2 cell line [1]): significantly increase
- Permeability Coefficient, Sampatrilat (Caco-2 cell line [1]): 2.10 10E−6 cm/s
- Permeability coefficient (mannitol) (Caco-2 cell line [2]): 7.50 10E−6 cm/s
Compound: O=C(O)CCCCCCCCC(=O)O [Sebacic acid, sebacic acid]
- Cytotoxicity relative to cells treated with Hank's balanced salt solution alone (Caco-2 cells): not cytotoxic
- Toxicity (Caco-2 cells; [9]): No
- Toxicity (Caco-2 cells; [7]): No

- Permeability enhancement of hydrochlorothiazide (Caco-2 cell line [3]): low or no potency
Compound: O=C(/C=C/C=C/c1ccc2c(c1)OCO2)N1CCCCC1 [Piperine, piperine]
- Toxicity (Caco-2 cells; [10]): No
- Toxicity (Caco-2 cells; [11]): Yes

- Enhancement ratio (Caco-2 cell line [6]; Caco-2, 0.5 %): 1.8
- Permeability coefficient (mannitol) (Caco-2 cell line [6]; Caco-2, 0.5 %): 1.71e-06 cm/s
- Enhancement ratio (Caco-2 cell line [6]; Caco-2, 1 %): 1.0
- Permeability coefficient (mannitol) (Caco-2 cell line [6]; Caco-2, 1 %): 8.9e-07 cm/s
Compound: CNCC(=O)O [sarcosine, methyl glycine]
- Toxicity (Caco-2 cells; [12]): No
- Toxicity (Caco-2 cells; [13]): No

- Papp at 6.8 uM (in vitro): 12.4 nm/s
- Enhancement ratio (Caco-2 cell line [6]; Caco-2): 1.0
- Enhancement ratio (Caco-2 cell line [6]; Caco-2, 1 %): 1.0
- Permeability coefficient (mannitol) (Caco-2 cell line [6]; Caco-2, 1 %): 0.93^a ×10^−6 cm/sec
Compound: OC[C@@H](O)[C@@H](O)[C@H](O)[C@H](O)CO [Mannitol, reference compound]
- Toxicity (Caco-2 cells; [13]): No
- Toxicity (Caco-2 cells; mannitol study, second series, 1% enhancer and 1% Tween 80 (none for mannitol control)): No

- Permeability coefficient (hydrochlorothiazide) (Caco-2 cell line [3]): 0.58 ×10^−6, cm/s
- Permeability enhancement of hydrochlorothiazide (Caco-2 cell line [3]): low or no potency
Compound: Vitamin E TPGS [Vitamin E TGPS]
- Toxicity (Caco-2 cells; [9]): No

- Enhancement ratio (Caco-2 cell line [6]; Caco-2, 0.5 %): 0.9
- Permeability coefficient (mannitol) (Caco-2 cell line [6]; Caco-2, 0.5 %): 8.5e-07 cm/s
- Enhancement ratio (Caco-2 cell line [6]; Caco-2, 1 %): 1.0
- Permeability coefficient (mannitol) (Caco-2 cell line [6]; Caco-2, 1 %): 9.3e-07 cm/s
Compound: NCC(=O)O [glycine]
- Toxicity (Caco-2 cells; [12]): No
- Toxicity (Caco-2 cells; [13]): No

- Permeability Coefficient, Sampatrilat (Caco-2 cell line [1]): 0.49 10E−6 cm/s
- Permeability coefficient (mannitol) (Caco-2 cell line [2]): 1.63 10E−6 cm/s
Compound: O=c1cc(CO)occ1O [Kojic acid]
- Toxicity (Caco-2 cells; [7]): Yes

- Permeability enhancement of hydrochlorothiazide (Caco-2 cell line [3]): demonstrated as permeability enhancers
- Effect on sampatrilat permeation across the Caco-2 cell line (Caco-2 cell line [1]): significantly increase
- Permeability Coefficient, Sampatrilat (Caco-2 cell line [1]): 19.90 10E−6 cm/s
- Increase of sampatrilat permeability over the drug alone (Caco-2 cell line [1]; human, Caco-2, 1 % w/v): 124 fold
- Permeability coefficient (mannitol) (Caco-2 cell line [2]): 12.30 10E−6 cm/s
- Enhancement ratio (Caco-2 cell line [6]; Caco-2, 0.5 %): 9.9
- Enhancement ratio (Caco-2 cell line [6]; Caco-2, 1 %): 15.9
Compound: CN(C)CC(=O)O [N,N-dimethylglycine]
- Cytotoxicity relative to cells treated with Hank's balanced salt solution alone (Caco-2 cells): not cytotoxic
- Toxicity (Caco-2 cells; [8]): No
- Toxicity (Caco-2 cells; [10]): No
- Toxicity (Caco-2 cells; hydrochlorothiazide study 4, excipient 1% (none for drug alone)): No
- Toxicity (Caco-2 cells; [12]): No
- Toxicity (Caco-2 cells; [13]): No
- Toxicity (Caco-2 cells; [7]): No
